Experimental data from US12304901B2, “Selective ligands for tau aggregates” (Sentonix, Inc., priority 2022, dated 2025).
Read-outs that look alike come from different tables or passages of the source.

Legend:
[1] = molecular target: recombinant 0N4R Tau fibrils (Homo sapiens (Human), UniProt P10636); assay: 3H-THK5117 competition binding to tau fibrils in vitro; conditions: competition with 3 nM [3H]-THK5117, 0N4R tau fibrils, 1 h, 22° C.; average if run more than once
Experimental: ^3H-THK5117 Competition Binding to Tau Fibrils In Vitro
Preparation of recombinant 0N4R Tau fibrils was performed as previously described in Morozova, O. A., Biochemistry (2013), Vol., 52(40), pages 6960-6967. Competition binding experiments to 0N4R Tau fibrils were performed by incubating increasing concentrations [10^−10-10^−6 M] of the Example compounds of the invention, or the known tau specific ligand PBB3 (PBB3 was synthesized as previously described in M. Maruyama, et al, Neuron 2013, 79, 1094-1108) or MK6240 (Novandi Chemistry AB), in the presence of 3 nM of the known tau ligand [^3H]-THK5117 (Novandi Chemistry) and 0.2 mM 0N4R tau fibrils in binding buffer (50 mM Tris-HCl, pH 7.4, 0.1% BSA) for 1 h in the dark, and at 22° C. The incubation was terminated by filtration through a Whatman GF/B glass filter (Whatman International, Kent, UK) using a Brandel cell harvester. The filter was then washed rapidly four times with 3 mL of ice-cold wash buffer (5 mM Tris-HCl, 0.25 mM NaCl, 5% EtOH), and equilibrated for 1 h in scintillation vials containing 5 mL of Ultima Gold scintillation fluid before being analysed using a Liquid Scintillation Analyzer.
The results are shown in Table 2 in the column labeled “Tau IC50”. […] Biological Assay Results

[2] = Mouse intravenous (IV) pharmacokinetic study of plasma and brain exposure with bioanalysis; type: in vivo; conditions: for half-life / Kp: male, NMRI, iv, 1 mg/kg; for Kp: brain/plasma
Experimental: A pharmacokinetic study of plasma and brain exposure in mice after IV administration of Example Compound 1 or Comparative Example Compound 1 was carried out following the protocol described in Loryan, I., et al, Pharm Res (2014) 31: 2203-2219. Comparative Example Compound 1 is 2-{2-Fluoro-6-[4-(hydroxymethyl)piperidin-1-yl]pyridin-3-yl}-1H-indol-5-ol, and has the following structure:
The experimental protocol and bioanalysis described in Loryan, I., et al, Pharm Res (2014) 31: 2203-2219 was followed to measure mouse plasma and brain exposure. Table 3 below provides specific details of the mice, sampling, dose, formulation, method and additional information regarding the experiment, and Table 4 below provides further information regarding the sampling in the experiment.

[3] = cited from earlier work
[4] = brain, mouse NMRI male, IV 1 mg/kg, mean n=3
[5] = mouse, mouse, IV 1 mg/kg, read-out: Total concentration brain:plasma ratio
[6] = mouse, mouse, IV 1 mg/kg, read-out: Unbound concentration brain:plasma ratio
[7] = mouse, mouse, IV 1 mg/kg, read-out: unbound AUC in brain as % of the plasma AUC
[8] = plasma, mouse NMRI male, IV 1 mg/kg, mean n=3

Sequence of recombinant 0N4R Tau fibrils (P10636 other isoform, or with tags, fused parts or gaps): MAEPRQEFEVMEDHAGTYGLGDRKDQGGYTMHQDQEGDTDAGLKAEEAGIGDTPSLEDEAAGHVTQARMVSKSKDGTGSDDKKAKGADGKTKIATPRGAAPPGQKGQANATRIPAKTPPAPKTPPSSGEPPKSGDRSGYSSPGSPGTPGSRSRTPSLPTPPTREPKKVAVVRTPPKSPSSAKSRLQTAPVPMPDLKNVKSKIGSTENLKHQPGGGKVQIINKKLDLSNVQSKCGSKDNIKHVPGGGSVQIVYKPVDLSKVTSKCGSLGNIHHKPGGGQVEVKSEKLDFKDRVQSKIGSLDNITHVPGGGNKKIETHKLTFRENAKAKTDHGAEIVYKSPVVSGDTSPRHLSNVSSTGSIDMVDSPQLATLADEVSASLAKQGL

CO[C@H]1CCCN(c2ccc(-c3cc4cc(O)ccc4[nH]3)c(F)n2)C1 [Example Compound 1, 2-{2-Fluoro-6-[(3S)-3-methoxypiperidin-1-yl]pyridin-3-yl}-1H-indol-5-ol]
IC50 [1]: 1.7 nM
AUCinf [2, 4]: 457.8 ng·h/g
AUClast [2, 4]: 454.6 ng·h/g
Cmax [2, 4]: 1190 ng/g
Tmax [2, 4]: 1.8 min
Total concentration AUC ([2]; brain, mouse, IV 1 mg/kg): 457.8 ng·h/g
Unbound concentration AUC ([2]; brain, mouse, IV 1 mg/kg): 0.09 ng·h/g
half-life ([2]; mouse, brain, brain, following IV dosing, mouse, read-out: elimination half-life (converted)): ~18 min
half-life ([2]; mouse, brain, brain, mouse NMRI male, IV 1 mg/kg, mean n=3, read-out: t1/2 (converted)): 18 min
Kp [2, 5]: 1.7
Kp [2, 6]: 0.56
Kp [2, 7]: ~0.56
half-life ([2]; mouse, plasma, plasma, mouse NMRI male, IV 1 mg/kg, mean n=3, read-out: t1/2 (converted)): 24 min
adverse events in the mice during the study ([2]; mouse, IV 1 mg/kg): No adverse events were observed
AUC(0-inf) [2, 8]: 267 ng·h/mL
AUC(0-t) [2, 8]: 264 ng·h/mL
C0 [2, 8]: 884 ng/mL
Cmax [2, 8]: 782 ng/mL
MRT [2, 8]: 18 min
Tmax [2, 8]: 1.8 min
Vd [2, 8]: 1.2 L/kg
clearance [2, 8]: 62.4 mL/min/kg
Total concentration AUC ([2]; plasma, mouse, IV 1 mg/kg): 267.1 ng·h/g
Unbound concentration AUC ([2]; plasma, mouse, IV 1 mg/kg): 0.16 ng·h/g

CO[C@@H]1CCCN(c2ccc(-c3cc4cc(O)ccc4[nH]3)c(F)n2)C1 [Example Compound 2, 2-{2-Fluoro-6-[(3R)-3-methoxypiperidin-1-yl]pyridin-3-yl}-1H-indol-5-ol]
IC50 [1]: 31.8 nM

[11CH3]Nc1ccc(/C=C/C=C/c2nc3ccc(O)cc3s2)cn1 [^11C-PBB3]
radiochemical purity after exposure to fluorescent light ([3]; 1 min after exposure): 77%
radiochemical purity after exposure to fluorescent light ([3]; from 10 to 60 min after exposure): approximately 50%

OCC1CCN(c2ccc(-c3cc4cc(O)ccc4[nH]3)c(F)n2)CC1 [Comparative Example Compound 1, 2-{2-Fluoro-6-[4-(hydroxymethyl)piperidin-1-yl]pyridin-3-yl}-1H-indol-5-ol, reference compound]
Total concentration AUC ([2]; brain, mouse, IV 1 mg/kg): 15 ng·h/g
Unbound concentration AUC ([2]; brain, mouse, IV 1 mg/kg): 0.030 ng·h/g
Kp [2, 5]: 0.1
Kp [2, 6]: 0.002
Kp [2, 7]: ~0.002
Total concentration AUC ([2]; plasma, mouse, IV 1 mg/kg): 151 ng·h/g
Unbound concentration AUC ([2]; plasma, mouse, IV 1 mg/kg): 14 ng·h/g
